Reference: US20100227880A1, “CHEMICAL COMPOUNDS” (priority 2006, published 2010)
Where two headings read alike, the source gives them in different places.

Tested on: HIV-1 Ba-L or HIV-1 IIIB infection of the HOS cell line (expressing hCXCR4/hCCR5/hCD4/pHIV-LTR-luciferase)
Test: HOS HIV-1 Infectivity Assay
Format: cell-based
Details: luciferase readout, strain not given, read-out: Activity Level
Description: Compounds were profiled against two HIV-1 viruses, the M-tropic (CCR5 utilizing) Ba-L strain and the T-tropic (CXCR4 utilizing) IIIB strain. Ba-L was propagated in either peripheral blood lymphocytes or SupT1/CCR5+/CXCR4+ cells. IIIB was propagated in peripheral blood lymphocytes. Compounds were tested for their ability to block infection of the HOS cell line (expressing hCXCR4/hCCR5/hCD4/pHIV-LTR-luciferase) by either HIV-1 Ba-L or HIV-1 IIIB. Compound cytotoxicity was also examined in the absence of virus addition.
HOS cells (expressing hCXCR4/hCCR5/hCD4/pHIV-LTR-luciferase) were harvested and diluted in Dulbeccos modified Eagles media supplemented with 2% FCS to a concentration of 120,000 cells/ml. The cells were plated into 96-well plates (50 μl per well) and the plates were placed in a tissue culture incubator (370° C.; 5% CO2/95% air) for a period of 24 h.
Subsequently, 50 μl of the desired drug solution (2 times the final concentration) was added to each well and the plates were returned to the tissue culture incubator ([…]; 5% CO2/95% air) for 1 h. Following this incubation, 60 μl of diluted virus (4 times the final concentration) was added to 60 μl of 2× the final desired concentration of the compound and 100 μl this compound/virus mix was added to each well (approximately 2 million RLU per well of virus). The plates were returned to the tissue culture incubator ([…]; 5% CO2/95% air) and were incubated for a further 96 h.
Following this incubation the endpoint for the virally infected cultures was quantified following addition of Steady-Glo Luciferase assay system reagent (Promega, Madison, Wis.). Cell viability or non-infected cultures was measured using a CellTiter-Glo luminescent cell viability assay system (Promega, Madison, Wis.). All luminescent readouts are performed on a Topcount luminescence detector (Packard, Meridien, Conn.).

[1] = Human immunodeficiency virus 1, HOS cells

Row | Compound | IC50 [1] [nM] | IC50 (HOS cells) [nM]
1 | CN(Cc1nc2ccccn2c1CN1CCCCC1)[C@H]1CCCc2cccnc21 [Example 12, (8S)-N-Methyl-N-{[3-(1-piperidinylmethyl)imidazo[1,2-a]pyridin-2-yl]methyl}-5,6,7,8-tetrahydro-8-quinolinamine] | < 100 | –
2 | CC(C)CN(C)Cc1c(CN(C)[C@H]2CCCc3cccnc32)nc2ccccn12 [Example 26, (8S)-N-Methyl-N-[(3-{[methyl(2-methylpropyl)amino]methyl}imidazo[1,2-a]pyridin-2-yl)methyl]-5,6,7,8-tetrahydro-8-quinolinamine] | 100 to 500 | –
3 | CN1CCN(c2ccc(-c3c(CN(C)[C@H]4CCCc5cccnc54)nc4ccccn34)cn2)CC1 [Example 14, (8S)-N-Methyl-N-({3-[6-(4-methyl-1-piperazinyl)-3-pyridinyl]imidazo[1,2-a]pyridin-2-yl}methyl)-5,6,7,8-tetrahydro-8-quinolinamine] | < 100 | –
4 | CN(Cc1nc2ccccn2c1-c1ccc(N2CCCC2)nc1)[C@H]1CCCc2cccnc21 [Example 15, (8S)-N-Methyl-N-({3-[6-(1-pyrrolidinyl)-3-pyridinyl]imidazo[1,2-a]pyridin-2-yl}methyl)-5,6,7,8-tetrahydro-8-quinolinamine] | 100 to 500 | –
5 | CN1CCN(Cc2c(CN(C)C3CCCc4cccnc43)nc3ccccn23)CC1 (centres unmarked) [Example 31, N-methyl-N-({3-[(4-methyl-1-piperazinyl)methyl]imidazo[1,2-d]pyridin-2-yl}methyl)-5,6,7,8-tetrahydro-8-quinolinamine] | 100 to 500 | –
6 | CN(C)CCN(C)c1ccc(-c2c(CN(C)[C@H]3CCCc4cccnc43)nc3ccccn23)cn1 [Example 16, N,N,N′-trimethyl-N′-trimethyl-N′-{5-[2-({methyl[(8S)-5,6,7,8-tetrahydro-8-quinolinyl]amino}methyl)imidazo[1,2-a]pyridin-3-yl]-2-pyridinyl}-1,2-ethanediamine] | 500 to 10000 | –
7 | CC(C)N(C)Cc1c(CN(C)[C@H]2CCCc3cccnc32)nc2ccccn12 [Example 22, (8S)-N-Methyl-N-[(3-{[methyl(1-methylethyl)amino]methyl}imidazo[1,2-a]pyridin-2-yl)methyl]-5,6,7,8-tetrahydro-8-quinolinamine] | < 100 | –
8 | CN(Cc1nc2ccccn2c1CN1CCOCC1)[C@H]1CCCc2cccnc21 [Example 10, (8S)-N-Methyl-N-{[3-(4-morpholinylmethyl)imidazo[1,2-a]pyridin-2-yl]methyl}-5,6,7,8-tetrahydro-8-quinolinamine] | 100 to 500 | –
9 | CC(C)CNCCCc1c(CN(C)[C@H]2CCCc3cccnc32)nc2ccccn12 [Example 4, (8S)-N-Methyl-N-[(3-{3-[(2-methylpropyl)amino]propyl}imidazo[1,2-a]pyridin-2-yl)methyl]-5,6,7,8-tetrahydro-8-quinolinamine] | < 100 | –
10 | CN(Cc1nc2ccccn2c1C(=O)N1CC(N)C1)C1CCCc2cccnc21 (centres unmarked) [Example 34, N-({3-[(3-amino-1-azetidinyl)carbonyl]imidazo[1,2-a]pyridin-2-yl}methyl)-N-methyl-5,6,7,8-tetrahydro-8-quinolinamine] | 500 to 10000 | –
11 | COCCN(C)Cc1c(CN(C)[C@H]2CCCc3cccnc32)nc2ccccn12 [Example 21, (8S)-N-Methyl-N-{[3-({methyl[2-(methyloxy)ethyl]amino}methyl)imidazo[1,2-a]pyridin-2-yl]methyl}-5,6,7,8-tetrahydro-8-quinolinamine] | 100 to 500 | –
12 | CN1CCC(N(C)Cc2c(CN(C)[C@H]3CCCc4cccnc43)nc3ccccn23)C1 (stereo partly drawn) [Example 23, (8S)-N-Methyl-N-[(3-{[methyl(1-methyl-3-pyrrolidinyl)amino]methyl}imidazo[1,2-a]pyridin-2-yl)methyl]-5,6,7,8-tetrahydro-8-quinolinamine] | < 100 | –
13 | CN(Cc1nc2ccccn2c1-c1ccc(N2CCOCC2)nc1)[C@H]1CCCc2cccnc21 [Example 8, (8S)-N-Methyl-N-({3-[6-(4-morpholinyl)-3-pyridinyl]imidazo[1,2-a]pyridin-2-yl}methyl)-5,6,7,8-tetrahydro-8-quinolinamine] | 100 to 500 | –
14 | CN(C)c1cc(-c2c(CN(C)[C@H]3CCCc4cccnc43)nc3ccccn23)ccn1 [Example 28, (8S)-N-({3-[2-(Dimethylamino)-4-pyridinyl]imidazo[1,2-a]pyridin-2-yl}methyl)-N-methyl-5,6,7,8-tetrahydro-8-quinolinamine] | 100 to 500 | –
15 | CN(C)Cc1c(CN(C)[C@H]2CCCc3cccnc32)nc2ccccn12 [Example 6, (8S)-N-({3-[(Dimethylamino)methyl]imidazo[1,2-a]pyridin-2-yl}methyl)-N-methyl-5,6,7,8-tetrahydro-8-quinolinamine] | < 100 | –
16 | CN(Cc1nc2ccccn2c1-c1cccnc1)[C@H]1CCCc2cccnc21 [Example 5, (8S)-N-Methyl-N-{[3-(3-pyridinyl)imidazo[1,2-a]pyridin-2-yl]methyl}-5,6,7,8-tetrahydro-8-quinolinamine] | 100 to 500 | –
17 | CN(CCC#N)Cc1c(CN(C)[C@H]2CCCc3cccnc32)nc2ccccn12 [Example 27, 3-(Methyl{[2-({methyl[(8S)-5,6,7,8-tetrahydro-8-quinolinyl]amino}methyl)imidazo[1,2-a]pyridin-3-yl]methyl}amino)propanenitrile] | < 100 | –
18 | N,N,N′-Trimethyl-N′-{[2-({methyl[(8S)-5,6,7,8-tetrahydro-8-quinolinyl]amino}methyl)imidazo[1,2-a]pyridin-3-yl]methyl}-1,2-ethanediamine [Example 17] | – | < 100
19 | CN(C)CC(=O)NCc1c(CN(C)[C@H]2CCCc3cccnc32)nc2ccccn12 [Example 7, N^2,N^2-Dimethyl-N^1-{[2-({methyl[(8S)-5,6,7,8-tetrahydro-8-quinolinyl]amino}methyl)imidazo[1,2-a]pyridin-3-yl]methyl}glycinamide] | < 100 | –
20 | CC(C)N1CCN(C(=O)c2c(CN(C)C3CCCc4cccnc43)nc3ccccn23)CC1 (centres unmarked) [Example 38, N-methyl-N-[(3-{[4-(1-methylethyl)-1-piperazinyl]carbonyl}imidazo[1,2-a]pyridin-2-yl)methyl]-5,6,7,8-tetrahydro-8-quinolinamine] | 500 to 10000 | –
21 | CN(C)CCCc1c(CN(C)[C@H]2CCCc3cccnc32)nc2ccccn12 [Example 3, (8S)-N-({3-[3-(Dimethylamino)propyl]imidazo[1,2-a]pyridin-2-yl}methyl)-N-methyl-5,6,7,8-tetrahydro-8-quinolinamine] | < 100 | –
22 | COCCN(CCOC)Cc1c(CN(C)[C@H]2CCCc3cccnc32)nc2ccccn12 [Example 19, (8S)-N-{[3-({Bis[2-(methyloxy)ethyl]amino}methyl)imidazo[1,2-a]pyridin-2-yl]methyl}-N-methyl-5,6,7,8-tetrahydro-8-quinolinamine] | 100 to 500 | –
23 | CN(Cc1nc2ccccn2c1CN1CCCC1)[C@H]1CCCc2cccnc21 [Example 9, (8S)-N-Methyl-N-{[3-(1-pyrrolidinylmethyl)imidazo[1,2-a]pyridin-2-yl]methyl}-5,6,7,8-tetrahydro-8-quinolinamine] | < 100 | –
24 | CN(Cc1nc2ccccn2c1CNCCCN)C1CCCc2cccnc21 (centres unmarked) [Example 32, N-[(2-{-[methyl(5,6,7,8-tetrahydro-8-quinolinyl)amino]methyl}imidazo[1,2-a]pyridin-3-yl)methyl]-1,3-propanediamine] | 100 to 500 | –
25 | CN(CC#N)Cc1c(CN(C)[C@H]2CCCc3cccnc32)nc2ccccn12 [Example 25, (Methyl{[2-({methyl[(8S)-5,6,7,8-tetrahydro-8-quinolinyl]amino}methyl)imidazo[1,2-a]pyridin-3-yl]methyl}amino)acetonitrile] | < 100 | –
26 | CN1CCC(N(C)Cc2c(CN(C)[C@H]3CCCc4cccnc43)nc3ccccn23)CC1 [Example 24, (8S)-N-Methyl-N-[(3-{[methyl(1-methyl-4-piperidinyl)amino]methyl}imidazo[1,2-a]pyridin-2-yl)methyl]-5,6,7,8-tetrahydro-8-quinolinamine] | < 100 | –
27 | CCN(CC)Cc1c(CN(C)[C@H]2CCCc3cccnc32)nc2ccccn12 [Example 20, (8S)-N-({3-[(Diethylamino)methyl]imidazo[1,2-a]pyridin-2-yl}methyl)-N-methyl-5,6,7,8-tetrahydro-8-quinolinamine] | 100 to 500 | –
28 | CN(Cc1nc2ccccn2c1-c1ccnc(N2CCOCC2)c1)[C@H]1CCCc2cccnc21 [Example 29, (8S)-N-Methyl-N-({3-[2-(4-morpholinyl)-4-pyridinyl]imidazo[1,2-a]pyridin-2-yl}methyl)-5,6,7,8-tetrahydro-8-quinolinamine] | 100 to 500 | –
29 | CN(C)CCNCc1c(CN(C)C2CCCc3cccnc32)nc2ccccn12 (racemic) [Example 30, N,N-dimethyl-N′-[(2-{[methyl(5,6,7,8-tetrahydro-8-quinolinyl)amino]methyl}imidazo[1,2-a]pyridin-3-yl)methyl]-1,2-ethanediamine] | 100 to 500 | –
